In the supplement of paper PMC10307832:

How the values were obtained:
Assay in all cases: relative viability (nuclei count vs DMSO), 5 days (fraction); higher = more cells survive
BEN = system: BEN
In short: (§1)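 One day after seeding in 1536-well plates, lung cancer cell lines were dosed by pin tool. Dosing was either single-drug or a fixed anchor-drug dose plus five library-drug doses (not always all listed) in √10 steps. After 5 days, nuclei were stained in one fix-and-stain step and counted on 4× images, and relative viability is the nuclei count of treated wells over that of vehicle wells, given as the median of duplicate plates.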

COR-L 105 = system: COR-L 105
In short: as §1

EKVX = system: EKVX
In short: as §1

EMC-BAC-2 = system: EMC-BAC-2
In short: as §1

EPLC-272H = system: EPLC-272H
In short: as §1

HCC-78 = system: HCC-78
In short: as §1

HCC-827 = system: HCC-827
In short: as §1

LCLC-97TM1 = system: LCLC-97TM1
In short: as §1

LK-2 = system: LK-2
In short: as §1

LOU-NH91 = system: LOU-NH91
In short: as §1

LU99A = system: LU99A
In short: as §1

NCI-H1650 = system: NCI-H1650
In short: as §1

NCI-H1792 = system: NCI-H1792
In short: as §1

NCI-H2087 = system: NCI-H2087
In short: as §1

NCI-H2126 = system: NCI-H2126
In short: as §1

NCI-H727 = system: NCI-H727
In short: as §1

SK-MES-1 = system: SK-MES-1
In short: as §1

SW 1573 = system: SW 1573
In short: as §1

SMILES: COCC1(CO)C(=O)C2CCN1CC2 (configuration not stated) [PRIMA-1MET] + CC1(C)CCC(c2ccc(Cl)cc2)=C(CN2CCN(c3ccc(C(=O)NS(=O)(=O)c4ccc(N[C@H](CCN5CCOCC5)CSc5ccccc5)c(S(=O)(=O)C(F)(F)F)c4)cc3)CC2)C1 [Navitoclax] (partner 0.5 µM)
- relative viability (BEN; first compound 0.2 µM): 0.0631
- relative viability (BEN; first compound 0.6325 µM): 0.0967
- relative viability (BEN; first compound 6.325 µM): 0.0571
- relative viability (BEN; first compound 20 µM): 0.0562
- relative viability (COR-L 105; first compound 0.2 µM): 0.826
- relative viability (COR-L 105; first compound 0.6325 µM): 0.513
- relative viability (COR-L 105; first compound 2 µM): 0.761
- relative viability (COR-L 105; first compound 6.325 µM): 0.671
- relative viability (COR-L 105; first compound 20 µM): 0.211
- relative viability (EKVX; first compound 0.2 µM): 1.03
- relative viability (EKVX; first compound 0.6325 µM): 0.621
- relative viability (EKVX; first compound 2 µM): 0.71
- relative viability (EKVX; first compound 6.325 µM): 0.938
- relative viability (EKVX; first compound 20 µM): 0.777
- relative viability (EMC-BAC-2; first compound 0.2 µM): 1.18
- relative viability (EMC-BAC-2; first compound 0.6325 µM): 1.16
- relative viability (EMC-BAC-2; first compound 2 µM): 1.13
- relative viability (EMC-BAC-2; first compound 6.325 µM): 1.25
- relative viability (EMC-BAC-2; first compound 20 µM): 1.15
- relative viability (EPLC-272H; first compound 0.2 µM): 1.33
- relative viability (EPLC-272H; first compound 0.6325 µM): 0.933
- relative viability (EPLC-272H; first compound 2 µM): 1.15
- relative viability (EPLC-272H; first compound 6.325 µM): 1.15
- relative viability (EPLC-272H; first compound 20 µM): 0.989
- relative viability (HCC-78; first compound 0.2 µM): 0.876
- relative viability (HCC-78; first compound 0.6325 µM): 0.77
- relative viability (HCC-78; first compound 6.325 µM): 0.787
- relative viability (HCC-78; first compound 20 µM): 0.0496
- relative viability (HCC-827; first compound 0.2 µM): 1.01
- relative viability (HCC-827; first compound 0.6325 µM): 0.9
- relative viability (HCC-827; first compound 2 µM): 0.721
- relative viability (HCC-827; first compound 6.325 µM): 1
- relative viability (HCC-827; first compound 20 µM): 1.03
- relative viability (LCLC-97TM1; first compound 0.2 µM): 0.605
- relative viability (LCLC-97TM1; first compound 2 µM): 0.644
- relative viability (LCLC-97TM1; first compound 6.325 µM): 0.531
- relative viability (LCLC-97TM1; first compound 20 µM): 0.0875
- relative viability (LK-2; first compound 0.2 µM): 1.06
- relative viability (LK-2; first compound 0.6325 µM): 0.771
- relative viability (LK-2; first compound 2 µM): 0.617
- relative viability (LK-2; first compound 6.325 µM): 0.726
- relative viability (LK-2; first compound 20 µM): 0.133
- relative viability (LOU-NH91; first compound 0.2 µM): 0.729
- relative viability (LOU-NH91; first compound 0.6325 µM): 0.677
- relative viability (LOU-NH91; first compound 2 µM): 0.589
- relative viability (LOU-NH91; first compound 6.325 µM): 0.601
- relative viability (LOU-NH91; first compound 20 µM): 0.383
- relative viability (LU99A; first compound 0.2 µM): 1.06
- relative viability (LU99A; first compound 0.6325 µM): 0.611
- relative viability (LU99A; first compound 2 µM): 0.898
- relative viability (LU99A; first compound 6.325 µM): 0.752
- relative viability (LU99A; first compound 20 µM): 0.101
- relative viability (NCI-H1650; first compound 0.2 µM): 1.39
- relative viability (NCI-H1650; first compound 0.6325 µM): 1.14
- relative viability (NCI-H1650; first compound 2 µM): 1.32
- relative viability (NCI-H1650; first compound 6.325 µM): 1.33
- relative viability (NCI-H1650; first compound 20 µM): 0.888
- relative viability (NCI-H1792; first compound 0.2 µM): 0.525
- relative viability (NCI-H1792; first compound 0.6325 µM): 0.48
- relative viability (NCI-H1792; first compound 2 µM): 0.589
- relative viability (NCI-H1792; first compound 6.325 µM): 0.617
- relative viability (NCI-H1792; first compound 20 µM): 0.544
- relative viability (NCI-H2087; first compound 0.2 µM): 1.03
- relative viability (NCI-H2087; first compound 0.6325 µM): 0.901
- relative viability (NCI-H2087; first compound 2 µM): 1.22
- relative viability (NCI-H2087; first compound 6.325 µM): 1.2
- relative viability (NCI-H2087; first compound 20 µM): 0.842
- relative viability (NCI-H2126; first compound 0.2 µM): 0.931
- relative viability (NCI-H2126; first compound 0.6325 µM): 0.833
- relative viability (NCI-H2126; first compound 2 µM): 0.897
- relative viability (NCI-H2126; first compound 6.325 µM): 0.852
- relative viability (NCI-H2126; first compound 20 µM): 0.839
- relative viability (NCI-H727; first compound 0.2 µM): 0.54
- relative viability (NCI-H727; first compound 0.6325 µM): 0.41
- relative viability (NCI-H727; first compound 2 µM): 0.398
- relative viability (NCI-H727; first compound 6.325 µM): 0.311
- relative viability (NCI-H727; first compound 20 µM): 0.105
- relative viability (SK-MES-1; first compound 0.2 µM): 1.2
- relative viability (SK-MES-1; first compound 0.6325 µM): 1.28
- relative viability (SK-MES-1; first compound 2 µM): 1.19
- relative viability (SK-MES-1; first compound 6.325 µM): 1.27
- relative viability (SK-MES-1; first compound 20 µM): 1.23
- relative viability (SW 1573; first compound 0.2 µM): 1.12
- relative viability (SW 1573; first compound 0.6325 µM): 0.614
- relative viability (SW 1573; first compound 2 µM): 0.789
- relative viability (SW 1573; first compound 6.325 µM): 0.0618
- relative viability (SW 1573; first compound 20 µM): 0.034
